Counter-ions that a name gives are not always drawn.
Assays:
[1] = system: spontaneous hypertensive male rats (SHR); test: Efficacy in Diabetic Model: Determination of Blood Sugar Level, non-diabetic SHR; type: in vivo, rat; conditions: for Blood Sugar Level: SHR (n = 8), mean ± S.E.
Experimental: (§1) 5-Week old spontaneous hypertensive male rats (SHR), available from Nippon Charles River, were used. Streptozotocin (STZ) was dissolved in a 0.1M citrate buffer solution (pH 4.5) and injected into the tail vein of the rats at a dose level of 50 mg/kg to prepare diabetic rats. For control, rats received 1 ml/kg of the citrate buffer solution alone through administration to the tail vein. After one week from the STZ administration, blood was taken from the tail vein of the unanesthetized rats, and the blood sugar level was determined. Those rats having a blood sugar level of 300 mg/dl or higher were used as diabetic rats.
(§2) 6-(1-Imidazolylmethyl)-5,6,7,8-tetrahydronaphthalene- 2-carboxylic acid hydrochloride hemihydrate (hereinafter referred to as Compound A) was dissolved in distilled water and administered orally to the test animals at a dose level of 1 mg/kg/day or 10 mg/kg/day for 5 consecutive months from one week after the administration of STZ or a citrate buffer solution.
(§3) Just before the administration of Compound A, blood was sampled from the tail vein of the rats without any restriction of diet to determine the blood sugar level using a commercial glucose assay kit (Trade name: New Blood Sugar Test, produced by Boehringer Mannheim Co., Ltd., West Germany). The results are shown in Table 1, expressed as mean ±S.E.

[2] = system: streptozotocin-induced diabetic spontaneous hypertensive rats; test: Efficacy in Diabetic Model: Determination of Blood Sugar Level, STZ-induced diabetic SHR; type: in vivo, rat; conditions: for Blood Sugar Level: Diabetic SHR (n = 7), mean ± S.E.
Experimental: as §1, §2, §3

diabetic SHR = test: Determination of Glucose Tolerance in diabetic SHR; type: in vivo, rat; conditions: for Blood Sugar Level (Effect on Glucose Tolerance): 3 months
Experimental: as §1, §2
After 3 months from the start of the administration of Compound A, the rats were fasted for 18 hours. Glucose was administered orally to the rats at a dose level of 2 g/kg. Blood was sampled from the tail vein of the rats just before the administration of glucose and at 1 hour and 2 hours after the administration to determine the blood sugar lever using the above method. The result was shown in Table 2, expressed as mean +S.E.

Acute Toxicity in Rats = conditions: rat, in vivo
Source text: Acute toxicities of Compound A in rats through oral administration or intravenous injection were as follows.

[3] = 1 mg/kg/day p.o., 0 weeks (before administration)
[4] = 10 mg/kg/day p.o., 0 weeks (before administration)

SMILES: O=C(O)c1ccc2c(c1)CCC(Cn1ccnc1)C2 (centres unmarked) [Compound A, 6-(1-Imidazolylmethyl)-5,6,7,8-tetrahydronaphthalene-2-carboxylic acid hydrochloride hemihydrate]
- Blood Sugar Level [1, 3]: 100.7 mg/dL
- Blood Sugar Level ([1]; 1 mg/kg/day p.o., 2 weeks): 95.4 mg/dL
- Blood Sugar Level ([1]; 1 mg/kg/day p.o., 8 weeks): 94.5 mg/dL
- Blood Sugar Level [1, 4]: 108.0 mg/dL
- Blood Sugar Level ([1]; 10 mg/kg/day p.o., 2 weeks): 90.9 mg/dL
- Blood Sugar Level ([1]; 10 mg/kg/day p.o., 8 weeks): 93.2 mg/dL
- effect on blood sugar level in SHR ([1]; non-diabetic SHR): not affected
- effect on blood sugar level of diabetic SHR ([2]; 8 weeks after the start of administration): significantly lowered the blood sugar level
- Blood Sugar Level [2, 3]: 374.6 mg/dL
- Blood Sugar Level ([2]; 1 mg/kg/day p.o., 2 weeks, control 481.5): 406.3 mg/dL
- Blood Sugar Level ([2]; 1 mg/kg/day p.o., 8 weeks, control 544.2): 445.0 mg/dL
- Blood Sugar Level [2, 4]: 361.4 mg/dL
- Blood Sugar Level ([2]; 10 mg/kg/day p.o., 2 weeks, control 481.5, *P < 0.05 vs control): 365.2 mg/dL
- Blood Sugar Level ([2]; 10 mg/kg/day p.o., 8 weeks, control 544.2, **P < 0.01 vs control): 277.3 mg/dL
- effect on high blood sugar level of diabetic SHR ([2]; from 2 weeks after the start of administration): tendency to lower the high blood sugar level
- Blood Sugar Level (Effect on Glucose Tolerance) (diabetic SHR; 1 mg/kg/day p.o. (n = 7), 1 hour after glucose load (2 g/kg p.o.), control 329.5): 255.4 mg/dL
- Blood Sugar Level (Effect on Glucose Tolerance) (diabetic SHR; 1 mg/kg/day p.o. (n = 7), 2 hours after glucose load (2 g/kg p.o.), control 280.8): 167.3 mg/dL
- Blood Sugar Level (Effect on Glucose Tolerance) (diabetic SHR; 1 mg/kg/day p.o. (n = 7), just before the glucose load (2 g/kg p.o.), control 178.5): 136.8 mg/dL
- Blood Sugar Level (Effect on Glucose Tolerance) (diabetic SHR; 10 mg/kg/day p.o. (n = 8), 1 hour after glucose load (2 g/kg p.o.), control 329.5, *P < 0.05 vs control): 202.4 mg/dL
- Blood Sugar Level (Effect on Glucose Tolerance) (diabetic SHR; 10 mg/kg/day p.o. (n = 8), 2 hours after glucose load (2 g/kg p.o.), control 280.8): 137.1 mg/dL
- Blood Sugar Level (Effect on Glucose Tolerance) (diabetic SHR; 10 mg/kg/day p.o. (n = 8), just before the glucose load (2 g/kg p.o.), control 178.5): 105.1 mg/dL
- glucose tolerance in the diabetic SHR (diabetic SHR; rat, in vivo): improved the glucose tolerance
- LD50 (Acute Toxicity in Rats; iv, female rats): 783 mg/kg
- LD50 (Acute Toxicity in Rats; iv, male rats): 807 mg/kg
- LD50 (Acute Toxicity in Rats; po, female rats): 1990 mg/kg
- LD50 (Acute Toxicity in Rats; po, male rats): 2440 mg/kg

Source: US4942171A, “The compound, 6-(1-imidazolyl methyl)-5,6,7,8-tetrahydronaphthalene-2-carboxylic acid and salts thereof having antidiabetic activity” (Daiichi Seiyaku Co., Ltd., priority 1987, dated 1990)
